Patent US20230227466A1, “SUBSTITUTED THIENOPYRIMIDINES THAT INTERACT WITH THE RAS SUPERFAMILY FOR THE TREATMENT OF CANCERS, INFLAMMATORY DISEASES, RASOPATHIES, AND FIBROTIC DISEASE” (SHY Therapeutics, LLC, priority 2020, published 2023)
Like-named read-outs stand apart in the source and are kept apart here.

How the values were obtained:
[1] = tested on: ERK1/2 phosphorylation in Panc-1 cells; experiment: Western ERK1/2 cell-based phosphorylation assay; design: species or system human; details: at 10 μM, values in brackets < > are activation %, not inhibition
Protocol: Cell lines: Human tumor-derived pancreatic cancer cell line Panc-1 was purchased from American Type Culture Collection and grown in complete DMEM-High Glucose, supplemented with penicillin (100 U/mL), streptomycin (100 μg/mL), and 10% heat-inactivated FBS at 37° C. in a humidified incubator with 5% CO2.
Method: Cells were plated at 350000 cells/well density in a 12-well plate, allowed 3 hours to adhere to the plate, then starved in the appropriate medium in the presence of 0.5% FBS overnight. The small molecules to be tested were added to the cells in the final concentration of 10 μM in the presence of 0.3% DMSO for 6 hours incubation at 37° C. For IC50 value determination, serial dilutions of compounds were added to cells under the same conditions. Next, cells were stimulated with 1.5 ng/ml EGF for 15 minutes then cells were lysed with lysis buffer containing 1% Triton X-100, EDTA, and Halt™ Protease & Phosphatase Inhibitor Cocktail (Thermo Scientific). Protein concentration was assessed by BCA protein assay (Thermo Scientific). Phosphorylation level of ERK1/2 was determined by western blot.
Western blot protocol: Equal amounts of protein (15-50 μg) were separated by SDS-PAGE and transferred to nitrocellulose membranes (Invitrogen by Thermo Fisher Scientific). The membrane was stained with Ponceau S Stain (Boston BioProducts) to verify uniform protein loading. Membranes were blocked with 10% milk and phosphorylation levels of ERK1/2 were assessed by incubating overnight at 4° C. with anti-phospho-p44/42 (Thr202/Tyr204) antibody (Cell Signaling) followed by HRP-conjugated secondary antibody (Jackson Immunoresearch, West Grove, Pa.). Bands were incubated in Amersham ECL Prime Western Blotting Detection Reagent (GE Healthcare) and visualized using the ChemiDoc MP imaging system (Bio-Rad). Protocol for Western AKT cell-based phosphorylation assay

[2] = tested on: MIA-PaCa-2 pancreatic cancer cell line (KRAS G12C); experiment: Cell proliferation assay (CellTiter 96 Aqueous One); type: cell-based; details: Homo sapiens; for inhibition at 10 µM: MIA PaCa-2, read-out: % inh cell proliferation (10 μM) in MIA PaCa-2
Protocol: Cell lines: Human tumor-derived cell lines were purchased from American Type Culture Collection. Human tumor-derived pancreatic cancer cell line MIA-PACA2 (having a KRAS G12C mutation) and Panc-1 (having a KRAS G12D mutation), and Human non-small cell lung cancer (NSCLC) cell line A549 (having a KRAS G12S mutation) were grown in complete DMEM-High Glucose. Human colon cancer cell line SW-620 (having a KRAS G12V mutation) was grown in RPMI. All cell lines were supplemented with penicillin (100 U/mL), streptomycin (100 μg/mL), and 10% heat-inactivated FBS at 37° C. in a humidified incubator with 5% CO2.
Method: Cells were plated at 2000 to 5000 cells/well density in 96-wells plate and cultured overnight. Small molecules to be tested were added to the cells in the final concentration of 10 μM in the presence of 0.3% DMSO and 10% FBS, and incubated for 2-4 days at 37° C. in a humidified incubator with 5% CO2. For IC50 value determination, serial dilutions of compounds were added to cells under the same conditions.
Assay: At the end of the incubation period, cell viability was measured using the CellTiter 96® Aqueous One Solution Cell Proliferation Assay according to manufacturer specifications (Promega, Madison, Wis.). The percentage of small molecules inhibition of cellular proliferation was calculated from raw data.

Rho-A = Rho-A (Homo sapiens, UniProt P61586); experiment: Ras GTP binding domain inhibition assay (labeled-GTP competition, cell-free); design: made in house
Excerpt: (§1) This is a competitive binding assay. It involves the immobilization of a protein on solid phase, interaction with a small molecule drug candidate, and then competitive binding with a labeled native GTP or GDP ligand.
(§2) In theory, the assay is suitable for use with any GTP or GDP binding protein.
(§3) The following method was developed as specific assay for the following proteins: KRas wild type, KRas Q61H mutant, KRas G12C mutant, KRas G12D mutant, Rac-1, and Rho-A.
(§4) The small GTPases proteins: KRas wild type. KRas Q61H mutant, KRas G12C mutant, KRas G12D mutants, Rac-1, and Rho-A were expressed as His-tagged proteins. In addition, the Guanosine nucleotide Exchange Factor (GEF) Sos protein (residues 556-1049) was expressed as a His-tagged protein. In cells, the guanine nucleotide exchange factor Sos protein promotes activation of Ras proteins by stimulating an exchange of GDP for GTP. The inclusion of Sos to the Ras GTP binding domain inhibition assay may be considered as an alternative representation of physiological cellular conditions for evaluating the inhibitory activity of some of the tested small molecules.
(§5) For the assay, all purified small GTPases proteins were diluted in Buffer-I or Buffer-II to a final concentration of 10-30 μg/mL. 200 μL of each diluted protein was added to a nickel-coated 96-well plate and incubated overnight at 4° C. Then the protein solution was discarded and 200 μL of Buffer-I or Buffer-II was added to each well in the presence of 1% DMSO. Compounds to be tested were added to the protein-coated wells at final concentration of 20 μM, and incubated for 3 hours at room temperature with and without 10-30 μg/mL of Sos added to the final hour of the incubation. When performing IC50 measurements a serial dilution of all tested concentrations was added. Then Cy3-GTP or Cy5-GTP was added to each well to a final concentration of 100 nM. The labeled GTP was incubated for 45 minutes at room temperature. Following GTP incubation, wells were washed 3× in Buffer-I or Buffer-II and 200 μL of Buffer-I or Buffer-II was added to each well. Following washes, the amount of bound labeled-GTP was measured using a SpectraMax M3 (Molecular Devices).

Rac-1 = Rac-1 (Homo sapiens, UniProt P63000); experiment: as above; design: made in house
Excerpt: as §1, §2, §3, §4, §5

KRas wild type = KRas wild type (Homo sapiens, UniProt P01116); experiment: as above; design: made in house
Excerpt: as §1, §2, §3, §4, §5

[3] = without SOS, read-out: Rho-A: % inh.
[4] = without SOS, read-out: Rac-1: % inh.
[5] = with SOS, read-out: KRas wild type + SOS: % inh.
[6] = without SOS, read-out: KRas wild type: % inh.
[7] = with SOS, read-out: Rho-A + SOS: % inh.
[8] = with SOS, read-out: Rac-1 + SOS: % inh.

Row | IC50 ([2]; MIA PaCa-2, MIA PaCa-2) [µM] | inhibition at 20 µM (Rho-A; [3]) [%] | inhibition at 20 µM (Rac-1; [4]) [%] | inhibition at 20 µM (KRas wild type; [5]) [%] | inhibition at 20 µM (KRas wild type; [6]) [%] | inhibition at 20 µM (Rho-A; [7]) [%] | inhibition at 20 µM (Rac-1; [8]) [%] | IC50 ([2]; MIA PaCa-2, MIA-PaCa-2, 2-4 days, 10% FBS) [µM] | SMILES | % inh of ERK1/2 phosphorylation in PANC-1 [1] | inhibition at 10 µM [2] [%]
1 | 5 to 10 | 26 to 50 | 26 to 50 | 76 to 100 | 0 | – | – | – | COc1cccc(Nc2nc(-c3nccn3C)nc3sc(-c4ccn(C(C)C)n4)c(C)c23)c1 [Compound 64, 6-(1-Isopropyl-1H-pyrazol-3-yl)-N-(3-methoxyphenyl)-5-methyl-2-(1-methyl-1H-imidazol-2-yl)thieno[2,3-d]pyrimidin-4-amine] | D (76-100% inhibition) | 76 to 100
2 | > 10 | 0 | 0 | 0 | 0 | 0 | 0 | – | CO[C@H]1CC[C@@H](Nc2nc(C(=O)N3CCCC3)nc3sccc23)C1 (racemic) [Compound 25, Rac-(4-(((1R,3S)-3-Methoxycyclopentyl)amino)thieno[2,3-d]pyrimidin-2-yl)(pyrrolidin-1-yl)methanone] | 0 (0% inhibition) | 1 to 25
3 | < 1 | 26 to 50 | 1 to 25 | 76 to 100 | 51 to 75 | 26 to 50 | 26 to 50 | < 0.4 | CO[C@@H]1CC[C@H](Nc2nc(-c3nccn3C)nc3sc(-c4ccn(C(C)C)n4)c(-c4ccccc4)c23)C1 [Example 4, 6-(1-isopropyl-1H-pyrazol-3-yl)-N-((1S,3R)-3-methoxycyclopentyl)-2-(1-methyl-1H-imidazol-2-yl)-5-phenylthieno[2,3-d]pyrimidin-4-amine] | D (76-100% inhibition) | 76 to 100
4 | 1 to 4.99 | 51 to 75 | 76 to 100 | 51 to 75 | 76 to 100 | – | – | – | CCOCCn1ccnc1-c1nc(O)c2scc(-c3ccccn3)c2n1 [Compound 80, 2-(1-(2-Ethoxyethyl)-1H-imidazol-2-yl)-7-(pyridin-2-yl)thieno[3,2-d]pyrimidin-4-ol] | A (1-25% inhibition) | 76 to 100
5 | < 1 | 51 to 75 | 26 to 50 | 76 to 100 | 76 to 100 | – | – | – | CO[C@H]1CC[C@H](Nc2nc(-c3nccn3C)nc3sc(-c4ccn(C(C)C)n4)c(C)c23)CC1 [Compound 54] | D (76-100% inhibition) | 76 to 100
6 | > 10 | 1 to 25 | 0 | 1 to 25 | 0 | 0 | 1 to 25 | – | CO[C@H]1CC[C@@H](Nc2nc(-c3nccn3C)nc3sc(-c4cc[nH]n4)c(-c4ccccc4)c23)C1 (racemic) [Example 1, Rac-N-((1R,3S)-3-methoxycyclopentyl)-2-(1-methyl-1H-imidazol-2-yl)-5-phenyl-6-(1H-pyrazol-3-yl)thieno[2,3-d]pyrimidin-4-amine] | 0 (0% inhibition) | 0
7 | > 10 | 26 to 50 | 1 to 25 | 1 to 25 | 1 to 25 | 26 to 50 | 1 to 25 | – | O=C(c1nc(O)c2scc(-c3ccccn3)c2n1)N1CCCC1 [Compound 19, (4-Hydroxy-7-(pyridin-2-yl)thieno[3,2-d]pyrimidin-2-yl)(pyrrolidin-1-yl)methanone] | 0 (0% inhibition) | 0
8 | 1 to 4.99 | 76 to 100 | 76 to 100 | 76 to 100 | 76 to 100 | 76 to 100 | 76 to 100 | – | COCCn1ccnc1-c1nc(N[C@H]2C[C@@H](OC)C2)c2c(-c3ccccc3)c(-c3ccn(C)n3)sc2n1 [Compound 7, N-((1s,3s)-3-Methoxycyclobutyl)-2-(1-(2-methoxyethyl)-1H-imidazol-2-yl)-6-(1-methyl-1H-pyrazol-3-yl)-5-phenylthieno[2,3-d]pyrimidin-4-amine] | D (76-100% inhibition) | 76 to 100
9 | 5 to 10 | 51 to 75 | 1 to 25 | 51 to 75 | 26 to 50 | – | – | – | COC1CCCN(c2nc(-c3nccn3C)nc3sc(-c4ccn(C(C)C)n4)c(C(F)(F)F)c23)C1 (racemic) [Compound 75, Rac-6-(1-Isopropyl-1H-pyrazol-3-yl)-4-(3-methoxypiperidin-1-yl)-2-(1-methyl-1H-imidazol-2-yl)-5-(trifluoromethyl)thieno[2,3-d]pyrimidine] | D (76-100% inhibition) | 76 to 100
10 | 1 to 4.99 | 76 to 100 | 51 to 75 | 76 to 100 | 76 to 100 | 76 to 100 | 51 to 75 | – | CO[C@@H]1CC[C@@H](Nc2nc(-c3nccn3C)nc3sc(-c4ccn(C(C)C)n4)c(C)c23)C1 (racemic) [Compound 33, rac-6-(1-Isopropyl-1H-pyrazol-3-yl)-N-((1R,3R)-3-methoxycyclopentyl)-5-methyl-2-(1-methyl-1H-imidazol-2-yl)thieno[2,3-d]pyrimidin-4-amine] | D (76-100% inhibition) | 76 to 100
